Laboratory results as given in PubChem BioAssay (NCI).
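The compound was tested at five concentrations on cells cultured in 96-well plates, with a 48-hour exposure period. TGI: total growth inhibition.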

Assays:
Assay in all cases: inhibition of tumour cell growth, NCI panel, 48 h
786-0 renal = test system: 786-0 renal
CAKI-1 renal = test system: CAKI-1 renal
HCC-2998 colon = test system: HCC-2998 colon
HCT-116 colon = test system: HCT-116 colon
HOP-62 NSCLC = test system: HOP-62 NSCLC
HS 578T breast = test system: HS 578T breast
MALME-3M melanoma = test system: MALME-3M melanoma
MDA-MB-231 breast = test system: MDA-MB-231 breast
RPMI-8226 leukemia = test system: RPMI-8226 leukemia
SF-268 CNS = test system: SF-268 CNS

Row | Structure (SMILES) | TGI (786-0 renal) [µM] | TGI (CAKI-1 renal) [µM] | TGI (HCC-2998 colon) [µM] | TGI (HCT-116 colon) [µM] | TGI (HOP-62 NSCLC) [µM] | TGI (HS 578T breast) [µM] | TGI (MALME-3M melanoma) [µM] | TGI (MDA-MB-231 breast) [µM] | TGI (RPMI-8226 leukemia) [µM] | TGI (SF-268 CNS) [µM]
1 | O=[N+]([O-])C(=C(NCc1ccccc1)NCc1ccccc1)C(Cl)=C(Cl)Cl | > 100 | 55.6 | > 100 | > 100 | > 100 | > 100 | 55.7 | 81.2 | 68.4 | 69.4
2 | O=C1CSC2(CCN(CCCN3c4ccccc4Sc4ccc(Cl)cc43)CC2)N1 | 23.2 | 25 | 14.4 | 19.4 | 25.5 | 51.9 | 24.4 | 18.8 | 18.3 | 26.6
3 | C=C1CCCCCCCCCCC1S(=O)c1ccccc1 (stereo not given) | 38.2 | > 100 | > 100 | > 100 | > 100 | > 100 | > 100 | 75.3 | 54.4 | 95.8
